This note sets out measurements from PubChem BioAssay (NCI).

Test in all cases: inhibition of tumour cell growth, NCI panel, 48 h
The subject of test [1] is SR leukemia.
Test [2] relates to KM12 colon.
Test [3] deals with OVCAR-8 ovarian.
Test [4] concerns A549 NSCLC.
Test [5] relates to M14 melanoma.
Test [6] concerns HOP-62 NSCLC.
The subject of test [7] is OVCAR-3 ovarian.
Test [8] deals with TK-10 renal.
For test [9], the system named is SNB-75 CNS.
In test [10] the test system is MALME-3M melanoma.

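Grown in 96-well plates, cells were treated for 48 hours with each compound at five concentrations. Insufficient inhibition: endpoint recorded as highest concentration tested. GI50 = concentration required for 50% inhibition of growth. The concentration for full growth arrest is given as TGI.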 Bounds are passed on as bounds.

As to `CN(C)C1CCN(C(=O)c2ccc(NC(=O)Nc3ccc(-c4nc(N5CCOCC5)c5cccn5n4)cc3)cc2)CC1`, the GI50 in test [1] was 0.0562 µM; in test [2] it was 0.155 µM; in test [3], 0.116 µM; in test [4], 0.0649 µM; in [5] it was 0.281 µM; in test [6], 0.0573 µM. The GI50 in [7] is 0.0412 µM; in test [8] it was 0.393 µM; in test [9], 0.0138 µM. For the same compound, the TGI in test [1] is above 54 µM; in test [2] it was 7.69 µM; in [3], 15.5 µM; in test [4] it was 12.6 µM; in [5] it was 9.15 µM; in test [6] it was 2.82 µM. In addition, the results for the TGI in test [7], in [8] and in test [9] were 1.12 µM, 3.84 µM and 0.0711 µM, respectively.

`CCCCCCCCCCCCCCCC(=O)OCCOCCOCCOCc1ccccc1`: the TGI in [2], in [3], in test [10], in test [4], in test [6] and in test [7] was above 100 µM throughout. Moreover, the TGI in [8] and in [9] was above 100 µM in each case.

On to `C=CCC1(c2ccc(OC)cc2)C=CC(=O)CC1` (centres undefined), for which the TGI in [1], in [2], in test [3], in test [4], in [5] and in [6] was above 100 µM each time. Further, the TGI in test [7], in test [8] and in test [9] was above 100 µM each time.

Turning to `CC(C)(C)c1cc(C(P(=O)(O)O)P(=O)(O)O)cc(C(C)(C)C)c1O`, the TGI in test [2], in test [3], in test [4], in test [5], in [6] and in [7] was above 100 µM each time. Also, the TGI in [8] and in [9] was above 100 µM each time.

Consider `Cc1ccc(C)c(NC(=O)c2cccc([N+](=O)[O-])c2O)c1`, for which the TGI is 61.5 µM in test [2]; above 100 µM in test [3]; 81.6 µM in test [10]; above 100 µM in [4]; above 100 µM in [5]; 47.1 µM in [6]. Also, the TGI in test [7] was above 100 µM; in test [9], 63.8 µM.

With `COC(=O)/C(=C/c1ccc(OC)cc1)C(C(=O)O)=C1CCCC1`, the TGI in test [1], in test [2], in test [3], in [4], in test [5] and in test [6] was above 100 µM in each case. In addition, the TGI in test [8] and in test [9] was above 100 µM in each case.

On to `COC(=O)/C(C#N)=C1\N=NNN1c1ccc(OC)cc1`, for which the TGI in [2], in [3], in test [10], in test [4], in test [5] and in test [7] was above 100 µM in each case. Besides, the TGI in test [8] and in [9] was above 100 µM throughout.

In the case of `COc1ccc2c(c1OCC(=O)O)C(=O)C(CCC(=O)O)CC2` (centres undefined), the TGI in [3], in test [4], in test [5], in test [6], in [7] and in test [9] was above 100 µM throughout.

For `CCN(CC)CCNc1nc(N)c(C#N)c(C#N)c1C#N`, the TGI in test [2], in test [3], in [10], in test [4], in [5] and in [6] was above 10 µM each time. The TGI in test [7], in [8] and in test [9] was above 10 µM in each case.

For `COC1C(OC(=S)Nc2ccccc2)c2ccccc2N1C(C)=O` (centres undefined), the TGI in test [1], in test [2], in test [3], in [4], in test [5] and in [6] was above 100 µM each time. For the same compound, the TGI in test [7] and in [9] was above 100 µM each time.

As for `CC1(C)COC(c2cccc3c2C(=O)c2cccc(Cl)c2-3)=N1`, the TGI in test [2], in test [3], in [10], in test [4], in test [5] and in test [7] was above 100 µM throughout. The TGI in [8] and in [9] was above 100 µM in each case.

For the compound `CC(=O)Nc1ccc(-c2csc(Nc3cccc(-c4csc(C)n4)c3)n2)cc1`, the GI50 is 0.787 µM in test [1]; 0.404 µM in [2]; 2.44 µM in [3]; 1.21 µM in test [4]; 0.743 µM in [5]; 3.02 µM in test [6]. The GI50 in test [7] is 0.238 µM; in [8], 6.03 µM. The TGI in test [1] was above 50 µM; in test [2], 6.07 µM; in test [3], 20.8 µM; in test [4] it was 18.9 µM; in test [5], 8.81 µM; in test [6], 15 µM. The compound also had a TGI in [8] above 50 µM.

With `S=c1[nH]c(=S)c2cc3ccccc3nc2[nH]1`, the GI50 is 29.5 µM in test [2]; above 100 µM in [3]; 14.6 µM in test [10]; above 100 µM in [4]; above 100 µM in [5]; above 100 µM in test [6]. The values for the GI50 in test [7], in test [8] and in test [9] were 12.9 µM, 94.2 µM and above 100 µM, respectively. For the same compound, the TGI was above 100 µM in [2]; above 100 µM in test [3]; 45.1 µM in test [10]; above 100 µM in test [4]; above 100 µM in test [5]; above 100 µM in [6]. The TGI in test [7] is 95.8 µM; in [8] it was above 100 µM; in [9], above 100 µM.

Turning to `c1ccc2c(OCCSCCCCCCCCCCSCCOc3cccc4ccccc34)cccc2c1`, the TGI in test [2], in [3], in [10], in test [4], in test [6] and in test [7] was above 100 µM in each case. Besides, the TGI in [8] and in test [9] was above 100 µM each time.
